Assay results from publication PMC8842224 (Journal of Medicinal Chemistry, 2022).
Like-named read-outs stand apart in the source and are kept apart here.

What was measured:
human A2AAR = human A2AAR (Homo sapiens, UniProt P29274)
human A1AR = target: T1, human A1AR (Homo sapiens, UniProt P30542); conditions: for Exp absolute binding affinity (ΔGbind): experimental, A1AR
T1 sequence (P30542 1-326): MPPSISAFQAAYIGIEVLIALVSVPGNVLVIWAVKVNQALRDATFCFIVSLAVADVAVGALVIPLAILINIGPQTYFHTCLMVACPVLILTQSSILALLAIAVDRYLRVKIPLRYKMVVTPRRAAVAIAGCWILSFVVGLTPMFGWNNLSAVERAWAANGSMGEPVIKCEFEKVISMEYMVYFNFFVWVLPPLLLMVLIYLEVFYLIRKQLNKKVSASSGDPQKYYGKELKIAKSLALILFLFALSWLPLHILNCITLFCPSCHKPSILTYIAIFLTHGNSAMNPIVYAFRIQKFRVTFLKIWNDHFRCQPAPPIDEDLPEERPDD

human A2BAR = target: T2, human A2BAR (Homo sapiens, UniProt P29275); conditions: read-out: hA2B Ki; displacement of specific [3H]DPCPX binding, human HEK-293 cells, ± SEM, n = 3
T2 sequence (P29275 1-332): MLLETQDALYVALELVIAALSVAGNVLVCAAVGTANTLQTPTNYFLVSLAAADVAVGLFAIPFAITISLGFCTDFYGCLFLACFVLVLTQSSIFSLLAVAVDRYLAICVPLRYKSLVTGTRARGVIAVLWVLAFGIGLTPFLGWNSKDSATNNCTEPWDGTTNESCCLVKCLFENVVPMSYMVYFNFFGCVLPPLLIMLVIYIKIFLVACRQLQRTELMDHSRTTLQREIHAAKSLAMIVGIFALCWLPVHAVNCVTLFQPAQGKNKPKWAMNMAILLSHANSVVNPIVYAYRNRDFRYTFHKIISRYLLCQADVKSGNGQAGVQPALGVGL

[1] = read-out: hA2A Ki, displacement of specific [3H]ZM241385 binding, human HeLa cells, ± SEM, n = 3
[2] = read-out: hA1 Ki, displacement of specific [3H]DPCPX binding, human CHO cells, ± SEM, n = 3
[3] = read-out: ki_a1, supplementary csv, unit inferred
[4] = read-out: ki_a2a, supplementary csv, unit inferred

human A2AAR, sequence (P29274 whole entry): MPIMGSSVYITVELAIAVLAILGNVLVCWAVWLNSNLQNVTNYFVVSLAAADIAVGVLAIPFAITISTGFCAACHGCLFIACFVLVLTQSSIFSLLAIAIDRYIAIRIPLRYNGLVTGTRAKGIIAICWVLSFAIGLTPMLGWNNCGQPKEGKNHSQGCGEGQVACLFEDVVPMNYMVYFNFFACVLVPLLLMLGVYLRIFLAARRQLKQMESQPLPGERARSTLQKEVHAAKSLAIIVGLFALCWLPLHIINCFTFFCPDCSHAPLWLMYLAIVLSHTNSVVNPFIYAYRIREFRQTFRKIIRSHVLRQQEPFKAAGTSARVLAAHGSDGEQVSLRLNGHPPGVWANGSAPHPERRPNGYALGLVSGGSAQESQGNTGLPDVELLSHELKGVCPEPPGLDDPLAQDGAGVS

Compound	Ki (human A2AAR; [1])	Ki (human A1AR; [2])	further results
N#Cc1c(-c2ccccc2)nc(N)nc1-c1ccccc1 [18a]	18.6 ± 3.4 nM		
N#Cc1c(-c2ccccc2)nc(N)nc1-c1ccsc1 [18aa]	20.6 ± 2.7 nM	5.25 ± 2.16 nM	
N#Cc1c(-c2ccccc2)nc(N)nc1-c1ccncc1 [18ab]	676 ± 27 nM	216 ± 23 nM	Ki (human A1AR; [3]): 216 nM; Ki (human A2AAR; [4]): 677 nM
N#Cc1c(-c2ccccc2)nc(N)nc1-c1cccnc1 [18ac]	36.4 ± 5.7 nM	19.6 ± 1.47 nM	
N#Cc1c(-c2ccccc2)nc(N)nc1-c1ccc2ccccc2c1 [18af]	5.78 ± 1.16 nM	8.27 ± 2.1 nM	
N#Cc1c(-c2ccccc2)nc(N)nc1-c1ccc(-c2ccccc2)cc1 [18ag]		6500 ± 451 nM	
N#Cc1c(-c2cccc(Cl)c2)nc(N)nc1-c1cccc(Cl)c1 [18ah]	35.3 ± 7.7 nM	4.82 ± 0.37 nM	Ki (human A2BAR): 73.6 ± 6.8 nM
N#Cc1c(-c2cccc(Cl)c2)nc(N)nc1-c1cc(Cl)cc(Cl)c1 [18ai]	190 ± 22 nM	7.81 ± 1.43 nM	
N#Cc1c(-c2cccc(Cl)c2)nc(N)nc1-c1ccc2c(c1)OCO2 [18aj]	101 ± 15 nM	5.61 ± 0.74 nM	Ki (human A2BAR): 386 ± 15 nM; Ki (human A2AAR; [4]): 102 nM
N#Cc1c(-c2ccc(F)cc2)nc(N)nc1-c1ccc2c(c1)OCO2 [18ak]	61 ± 4.9 nM	12.5 ± 2.3 nM	
COc1ccc(-c2nc(N)nc(-c3ccc(OC)cc3)c2C#N)cc1 [18al]		74.3 ± 3.4 nM	
N#Cc1c(-c2ccc(F)cc2)nc(N)nc1-c1ccco1 [18am]	5.72 ± 0.26 nM	9.08 ± 1.16 nM	Ki (human A2BAR): 13.9 ± 3.7 nM
N#Cc1c(-c2ccccc2)nc(N)nc1-c1ccccc1F [18b]	17.6 ± 2.8 nM	6.44 ± 1.25 nM	
COc1ccccc1-c1nc(N)nc(-c2ccccc2)c1C#N [18d]	17.7 ± 2.1 nM	13.1 ± 3.2 nM	
N#Cc1cccc(-c2nc(N)nc(-c3ccccc3)c2C#N)c1 [18i]	84.1 ± 11.7 nM	6.49 ± 1.14 nM	
N#Cc1c(-c2ccccc2)nc(N)nc1-c1ccc(F)cc1 [18j]	16.3 ± 2.9 nM	4.19 ± 1.16 nM	
N#Cc1c(-c2ccccc2)nc(N)nc1-c1ccc(Br)cc1 [18k]	21.9 ± 5 nM	9.19 ± 2.81 nM	
COc1ccc(-c2nc(N)nc(-c3ccccc3)c2C#N)cc1 [18l]	46 ± 3.2 nM	7.16 ± 2.03 nM	
N#Cc1c(-c2ccccc2)nc(N)nc1-c1ccc(O)cc1 [18m]	26.5 ± 1.6 nM	4.14 ± 0.55 nM	
Cc1ccc(-c2nc(N)nc(-c3ccccc3)c2C#N)cc1 [18n]	8.93 ± 0.12 nM	5.38 ± 1.36 nM	
N#Cc1c(-c2ccccc2)nc(N)nc1-c1ccc(F)cc1F [18o]	15.5 ± 2.21 nM	4 ± 1.82 nM	
COc1ccc(-c2nc(N)nc(-c3ccccc3)c2C#N)c(OC)c1 [18q]	10.2 ± 1.83 nM	3.98 ± 0.74 nM	
N#Cc1c(-c2ccccc2)nc(N)nc1-c1cc(Cl)cc(Cl)c1 [18s]	95.4 ± 16.5 nM	15.9 ± 2.11 nM	
N#Cc1c(-c2ccccc2)nc(N)nc1-c1ccc2c(c1)OCO2 [18u]	10.2 ± 1.09 nM		Ki (human A2BAR): 43.3 ± 4.2 nM
COc1cc(-c2nc(N)nc(-c3ccccc3)c2C#N)cc(OC)c1OC [18v]	0.95 ± 0.07 nM	2.58 ± 0.05 nM	
N#Cc1c(-c2ccccc2)nc(N)nc1-c1ccoc1 [18z]	52.1 ± 5.1 nM	18.7 ± 3.4 nM	
CNc1nc(-c2ccccc2)c(C#N)c(-c2ccccc2)n1 [19a]	711 ± 43 nM	9.14 ± 2.21 nM	Exp relative binding affinity (ΔΔGbind) (human A1AR; Lig 2 relative to Lig 1 = 19ad): -0.66 kcal/mol; Exp absolute binding affinity (ΔGbind) (human A1AR): -10.96 kcal/mol

Compound	Ki (human A2AAR; [1])	Ki (human A1AR; [2])	further results
CNc1nc(-c2ccccc2)c(C#N)c(-c2ccc(OC)cc2)n1 [19ab]		57.5 ± 2.7 nM	Exp absolute binding affinity (ΔGbind) (human A1AR): -9.87 kcal/mol
COc1ccc(-c2nc(Nc3ccccc3)nc(-c3ccccc3)c2C#N)cc1 [19ac]	51.4 ± 3.7 nM		Ki (human A2BAR): 186 ± 15 nM
CNc1nc(-c2ccccc2)c(C#N)c(-c2ccc(C)cc2)n1 [19ad]		28 ± 9.3 nM	Ki (human A2BAR): 474 ± 32 nM; Exp absolute binding affinity (ΔGbind) (human A1AR): -10.30 kcal/mol
Cc1ccc(-c2nc(Nc3ccccc3)nc(-c3ccccc3)c2C#N)cc1 [19ae]	157 ± 16 nM	37.9 ± 5.7 nM	Ki (human A2AAR; [4]): 158 nM
CCNc1nc(-c2ccccc2)c(C#N)c(-c2cc(Cl)cc(Cl)c2)n1 [19ak]		135 ± 20 nM	Ki (human A1AR; [3]): 136 nM
COc1cc(OC)cc(-c2nc(Nc3ccccc3)nc(-c3ccccc3)c2C#N)c1 [19an]	17.3 ± 1.9 nM		Ki (human A2BAR): 64 ± 9.6 nM
CNc1nc(-c2ccccc2)c(C#N)c(-c2cc(OC)c(OC)c(OC)c2)n1 [19ar]	3.63 ± 0.88 nM	11.7 ± 3.1 nM	
COc1cc(-c2nc(Nc3ccccc3)nc(-c3ccccc3)c2C#N)cc(OC)c1OC [19as]	15.8 ± 3.7 nM	76.5 ± 9.1 nM	
CNc1nc(-c2ccccc2)c(C#N)c(-c2ccco2)n1 [19at]	401 ± 25 nM	6.66 ± 2.4 nM	Exp relative binding affinity (ΔΔGbind) (human A1AR; Lig 2 relative to Lig 1 = 19a): -0.19 kcal/mol; Exp relative binding affinity (ΔΔGbind) (human A1AR; Lig 2 relative to Lig 1 = 19ax): -4.33 kcal/mol; Exp absolute binding affinity (ΔGbind) (human A1AR): -11.15 kcal/mol; Ki (human A2AAR; [4]): 402 nM
N#Cc1c(-c2ccccc2)nc(Nc2ccccc2)nc1-c1cccs1 [19aw]	330 ± 27 nM	42.3 ± 4.6 nM	
CNc1nc(-c2ccccc2)c(C#N)c(-c2ccoc2)n1 [19ax]			Exp absolute binding affinity (ΔGbind) (human A1AR): -6.82 kcal/mol
N#Cc1c(-c2ccccc2)nc(Nc2ccccc2)nc1-c1ccoc1 [19ay]	368 nM		
CCNc1nc(-c2ccccc2)c(C#N)c(-c2ccccc2)n1 [19b]	357 ± 21 nM	5.82 ± 1.16 nM	
N#Cc1c(-c2ccccc2)nc(Nc2ccccc2)nc1-c1ccsc1 [19ba]	102 ± 27 nM		
CNc1nc(-c2ccccc2)c(C#N)c(-c2ccncc2)n1 [19bb]		56.9 ± 6.7 nM	Exp relative binding affinity (ΔΔGbind) (human A1AR; Lig 2 relative to Lig 1 = 19a): 1.08 kcal/mol; Exp absolute binding affinity (ΔGbind) (human A1AR): -9.88 kcal/mol
N#Cc1c(-c2ccccc2)nc(Nc2ccccc2)nc1-c1cccnc1 [19bf]	27.1 ± 5.7 nM		Ki (human A2BAR): 29.4 ± 4 nM
N#Cc1c(-c2ccccc2)nc(Nc2ccccc2)nc1-c1ccccc1 [19c]	55.1 ± 4.3 nM	45.6 ± 6.7 nM	
CNc1nc(-c2ccccc2)c(C#N)c(-c2ccccc2F)n1 [19d]		29.5 ± 2.3 nM	Ki (human A2BAR): 47.8 ± 3.8 nM; Exp relative binding affinity (ΔΔGbind) (human A1AR; Lig 2 relative to Lig 1 = 19a): 0.69 kcal/mol; Exp absolute binding affinity (ΔGbind) (human A1AR): -10.27 kcal/mol
CNc1nc(-c2ccccc2)c(C#N)c(-c2cccc(F)c2)n1 [19j]		28.5 ± 2.7 nM	Ki (human A2BAR): 358 ± 27 nM; Exp relative binding affinity (ΔΔGbind) (human A1AR; Lig 2 relative to Lig 1 = 19a): 0.67 kcal/mol; Exp relative binding affinity (ΔΔGbind) (human A1AR; Lig 2 relative to Lig 1 = 19s): 1.34 kcal/mol; Exp relative binding affinity (ΔΔGbind) (human A1AR; Lig 2 relative to Lig 1 = 19v): 0.12 kcal/mol; Exp absolute binding affinity (ΔGbind) (human A1AR): -10.29 kcal/mol
CCNc1nc(-c2ccccc2)c(C#N)c(-c2cccc(Cl)c2)n1 [19m]	295 ± 27 nM	5.1 ± 1.8 nM	
N#Cc1c(-c2ccccc2)nc(Nc2ccccc2)nc1-c1cccc(Cl)c1 [19n]	46.3 ± 2.5 nM		
CNc1nc(-c2ccccc2)c(C#N)c(-c2cccc(O)c2)n1 [19o]	105 ± 8 nM	2.48 ± 0.71 nM	
CNc1nc(-c2ccccc2)c(C#N)c(-c2cccc(OC)c2)n1 [19q]	82.6 ± 4.9 nM	13.2 ± 4.1 nM	
COc1cccc(-c2nc(Nc3ccccc3)nc(-c3ccccc3)c2C#N)c1 [19r]	133 ± 11 nM	95.5 ± 11.7 nM	
N#Cc1cccc(-c2nc(Nc3ccccc3)nc(-c3ccccc3)c2C#N)c1 [19u]		18.2 ± 3.1 nM	Ki (human A2BAR): 16.4 ± 2.2 nM
N#Cc1c(-c2ccccc2)nc(Nc2ccccc2)nc1-c1ccc(F)cc1 [19w]		36.3 ± 4.1 nM	Ki (human A2BAR): 51.7 ± 3.1 nM
